Read-outs that look alike come from different tables or passages of the source. No end group written: not given here.
Test system: P. aeruginosa 1409
[1] = treated vs untreated, iTRAQ, cathelicidin-BF change not categorized as differentially expressed

## KFFRKLKKSVKKRAKEFFKKPRVIGVSIPF [cathelicidin-BF]
  Pa-Ca/Pa-C: 0.8832
  Pa-Ca/Pa-C: 30S ribosomal protein S9, rpsI (Q9HVY3): 0.9749
  expression of protein Q9HVA1 (acetolactate synthase isozyme III small subunit): overexpressed
  expression of protein Q9I3S7 (likely decarboxylase): downregulated
  expression of protein Q9I523 (nucleoside-triphosphate diphosphatase): downregulated
iTRAQ abundance ratio Pa-Cathelicidin/Pa-Control of protein G3XCU7 (GN=PA2949)
  Pa-Ca/Pa-C: 0.9896
iTRAQ abundance ratio Pa-Cathelicidin/Pa-Control of protein G3XCU9 (GN=PA2020)
  Pa-Ca/Pa-C: 0.9868
iTRAQ abundance ratio Pa-Cathelicidin/Pa-Control of protein G3XCW2 (GN=PA2018)
  Pa-Ca/Pa-C: 1.1346
iTRAQ abundance ratio Pa-Cathelicidin/Pa-Control of protein G3XCX7 (GN=pilP)
  Pa-Ca/Pa-C: 0.9395
iTRAQ abundance ratio Pa-Cathelicidin/Pa-Control of protein G3XCZ4 (GN=PA0891)
  Pa-Ca/Pa-C: 1.209
iTRAQ abundance ratio Pa-Cathelicidin/Pa-Control of protein G3XD66 (GN=narX)
  Pa-Ca/Pa-C: 0.9046
iTRAQ abundance ratio Pa-Cathelicidin/Pa-Control of protein G3XD98 (GN=gacS)
  Pa-Ca/Pa-C: 1.089
iTRAQ abundance ratio Pa-Cathelicidin/Pa-Control of protein G3XDA4 (GN=PA0653)
  Pa-Ca/Pa-C: 1.044
iTRAQ abundance ratio Pa-Cathelicidin/Pa-Control of protein O50273 (GN=cysD)
  Pa-Ca/Pa-C: 0.9324
iTRAQ abundance ratio Pa-Cathelicidin/Pa-Control of protein O68561 (GN=PA4766)
  Pa-Ca/Pa-C: 1.042
iTRAQ abundance ratio Pa-Cathelicidin/Pa-Control of protein P23747 (GN=algB)
  Pa-Ca/Pa-C: 1.041
iTRAQ abundance ratio Pa-Cathelicidin/Pa-Control of protein Q9HT06 (GN=yidC)
  Pa-Ca/Pa-C: 1.13
iTRAQ abundance ratio Pa-Cathelicidin/Pa-Control of protein Q9HT09 (GN=mnmG)
  Pa-Ca/Pa-C: 1.075
iTRAQ abundance ratio Pa-Cathelicidin/Pa-Control of protein Q9HTC2 (GN=PA5445)
  Pa-Ca/Pa-C: 1.07
iTRAQ abundance ratio Pa-Cathelicidin/Pa-Control of protein Q9HTG5 (GN=dgcB)
  Pa-Ca/Pa-C: 1.053
iTRAQ abundance ratio Pa-Cathelicidin/Pa-Control of protein Q9HTH5 (GN=cdhR)
  Pa-Ca/Pa-C: 1.224
iTRAQ abundance ratio Pa-Cathelicidin/Pa-Control of protein Q9HTJ5 (GN=pstA)
  Pa-Ca/Pa-C: 0.8996
iTRAQ abundance ratio Pa-Cathelicidin/Pa-Control of protein Q9HTL3 (GN=recG)
  Pa-Ca/Pa-C: 1.182
iTRAQ abundance ratio Pa-Cathelicidin/Pa-Control of protein Q9HTM0 (GN=spoT)
  Pa-Ca/Pa-C: 1.095
iTRAQ abundance ratio Pa-Cathelicidin/Pa-Control of protein Q9HTN3 (GN=dut)
  Pa-Ca/Pa-C: 1.23
iTRAQ abundance ratio Pa-Cathelicidin/Pa-Control of protein Q9HTQ6 (GN=xpt)
  Pa-Ca/Pa-C: 1.069
iTRAQ abundance ratio Pa-Cathelicidin/Pa-Control of protein Q9HTY4 (GN=argE)
  Pa-Ca/Pa-C: 1.064
iTRAQ abundance ratio Pa-Cathelicidin/Pa-Control of protein Q9HU23 (GN=rmlD)
  Pa-Ca/Pa-C: 0.9526
iTRAQ abundance ratio Pa-Cathelicidin/Pa-Control of protein Q9HU51 (GN=PA5133)
  Pa-Ca/Pa-C: 0.8597
iTRAQ abundance ratio Pa-Cathelicidin/Pa-Control of protein Q9HUB1 (GN=PA5072)
  Pa-Ca/Pa-C: 1.129
iTRAQ abundance ratio Pa-Cathelicidin/Pa-Control of protein Q9HUL5 (GN=PA4949)
  Pa-Ca/Pa-C: 0.9992
iTRAQ abundance ratio Pa-Cathelicidin/Pa-Control of protein Q9HUN4 (GN=alr)
  Pa-Ca/Pa-C: 0.8997
iTRAQ abundance ratio Pa-Cathelicidin/Pa-Control of protein Q9HUS6 (GN=PA4887)
  Pa-Ca/Pa-C: 0.9498
iTRAQ abundance ratio Pa-Cathelicidin/Pa-Control of protein Q9HUT5 (GN=PA4878)
  Pa-Ca/Pa-C: 0.8866
iTRAQ abundance ratio Pa-Cathelicidin/Pa-Control of protein Q9HVA1 (GN=ilvH)
  Pa-Ca/Pa-C: 1.442
iTRAQ abundance ratio Pa-Cathelicidin/Pa-Control of protein Q9HVI2 (GN=PA4607)
  Pa-Ca/Pa-C: 1.1056
iTRAQ abundance ratio Pa-Cathelicidin/Pa-Control of protein Q9HVI3 (GN=PA4606)
  Pa-Ca/Pa-C: 1.1297
iTRAQ abundance ratio Pa-Cathelicidin/Pa-Control of protein Q9HVP4 (GN=PA4533)
  Pa-Ca/Pa-C: 1.032
iTRAQ abundance ratio Pa-Cathelicidin/Pa-Control of protein Q9HVQ9 (GN=lpxO1)
  Pa-Ca/Pa-C: 0.3833
iTRAQ abundance ratio Pa-Cathelicidin/Pa-Control of protein Q9HVV6 (GN=PA4461)
  Pa-Ca/Pa-C: 0.9096
iTRAQ abundance ratio Pa-Cathelicidin/Pa-Control of protein Q9HW10 (GN=PA4396)
  Pa-Ca/Pa-C: 0.9909
iTRAQ abundance ratio Pa-Cathelicidin/Pa-Control of protein Q9HW40 (GN=PA4361)
  Pa-Ca/Pa-C: 1.028
iTRAQ abundance ratio Pa-Cathelicidin/Pa-Control of protein Q9HW52 (GN=PA4349)
  Pa-Ca/Pa-C: 1.052
iTRAQ abundance ratio Pa-Cathelicidin/Pa-Control of protein Q9HW85 (GN=sbcB)
  Pa-Ca/Pa-C: 0.9833
iTRAQ abundance ratio Pa-Cathelicidin/Pa-Control of protein Q9HWG9 (GN=phzS)
  Pa-Ca/Pa-C: 0.9442
iTRAQ abundance ratio Pa-Cathelicidin/Pa-Control of protein Q9HX06 (GN=PA4021)
  Pa-Ca/Pa-C: 1.123
iTRAQ abundance ratio Pa-Cathelicidin/Pa-Control of protein Q9HX89 (GN=PA3924)
  Pa-Ca/Pa-C: 0.8403
iTRAQ abundance ratio Pa-Cathelicidin/Pa-Control of protein Q9HXF4 (GN=PA3852)
  Pa-Ca/Pa-C: 1.051
iTRAQ abundance ratio Pa-Cathelicidin/Pa-Control of protein Q9HXG8 (GN=PA3836)
  Pa-Ca/Pa-C: 1.058
iTRAQ abundance ratio Pa-Cathelicidin/Pa-Control of protein Q9HXL6 (GN=PA3779)
  Pa-Ca/Pa-C: 0.9473
iTRAQ abundance ratio Pa-Cathelicidin/Pa-Control of protein Q9HXT9 (GN=wspR)
  Pa-Ca/Pa-C: 1.096
iTRAQ abundance ratio Pa-Cathelicidin/Pa-Control of protein Q9HY45 (GN=PA3575)
  Pa-Ca/Pa-C: 1.067
iTRAQ abundance ratio Pa-Cathelicidin/Pa-Control of protein Q9HY53 (GN=PA3564)
  Pa-Ca/Pa-C: 0.9999
iTRAQ abundance ratio Pa-Cathelicidin/Pa-Control of protein Q9HYC5 (GN=PA3484)
  Pa-Ca/Pa-C: 1.215
iTRAQ abundance ratio Pa-Cathelicidin/Pa-Control of protein Q9HYK2 (GN=PA3402)
  Pa-Ca/Pa-C: 1.136
iTRAQ abundance ratio Pa-Cathelicidin/Pa-Control of protein Q9HYU6 (GN=PA3297)
  Pa-Ca/Pa-C: 0.9414
iTRAQ abundance ratio Pa-Cathelicidin/Pa-Control of protein Q9HYV7 (GN=PA3286)
  Pa-Ca/Pa-C: 0.9022
iTRAQ abundance ratio Pa-Cathelicidin/Pa-Control of protein Q9HYZ3 (GN=apeB)
  Pa-Ca/Pa-C: 1.0565
iTRAQ abundance ratio Pa-Cathelicidin/Pa-Control of protein Q9HZD8 (GN=PA3070)
  Pa-Ca/Pa-C: 0.9912
iTRAQ abundance ratio Pa-Cathelicidin/Pa-Control of protein Q9HZF4 (GN=PA3054)
  Pa-Ca/Pa-C: 0.9528
iTRAQ abundance ratio Pa-Cathelicidin/Pa-Control of protein Q9HZG0 (GN=rlmL)
  Pa-Ca/Pa-C: 0.9995
iTRAQ abundance ratio Pa-Cathelicidin/Pa-Control of protein Q9HZG4 (GN=PA3044)
  Pa-Ca/Pa-C: 1.123
iTRAQ abundance ratio Pa-Cathelicidin/Pa-Control of protein Q9HZM6 (GN=ptpA)
  Pa-Ca/Pa-C: 0.8326
iTRAQ abundance ratio Pa-Cathelicidin/Pa-Control of protein Q9HZN0 (GN=PA2974)
  Pa-Ca/Pa-C: 1.056
iTRAQ abundance ratio Pa-Cathelicidin/Pa-Control of protein Q9HZY0 (GN=mttC)
  Pa-Ca/Pa-C: 1.0109
iTRAQ abundance ratio Pa-Cathelicidin/Pa-Control of protein Q9I0F5 (GN=PA2683)
  Pa-Ca/Pa-C: 1.0558
iTRAQ abundance ratio Pa-Cathelicidin/Pa-Control of protein Q9I0I2 (GN=PA2656)
  Pa-Ca/Pa-C: 1.043
iTRAQ abundance ratio Pa-Cathelicidin/Pa-Control of protein Q9I0Q7 (GN=kynA)
  Pa-Ca/Pa-C: 0.9342
iTRAQ abundance ratio Pa-Cathelicidin/Pa-Control of protein Q9I0R5 (GN=PA2571)
  Pa-Ca/Pa-C: 0.9216
iTRAQ abundance ratio Pa-Cathelicidin/Pa-Control of protein Q9I0Z9 (GN=PA2483)
  Pa-Ca/Pa-C: 0.8854
iTRAQ abundance ratio Pa-Cathelicidin/Pa-Control of protein Q9I1H9 (GN=PA2296)
  Pa-Ca/Pa-C: 0.9095
iTRAQ abundance ratio Pa-Cathelicidin/Pa-Control of protein Q9I1I4 (GN=PA2291)
  Pa-Ca/Pa-C: 1.111
iTRAQ abundance ratio Pa-Cathelicidin/Pa-Control of protein Q9I1M1 (GN=bkdA2)
  Pa-Ca/Pa-C: 1.005
iTRAQ abundance ratio Pa-Cathelicidin/Pa-Control of protein Q9I2G3 (GN=PA1941)
  Pa-Ca/Pa-C: 0.9926
iTRAQ abundance ratio Pa-Cathelicidin/Pa-Control of protein Q9I2R3 (GN=PA1832)
  Pa-Ca/Pa-C: 0.9008
iTRAQ abundance ratio Pa-Cathelicidin/Pa-Control of protein Q9I2T1 (GN=gloB)
  Pa-Ca/Pa-C: 0.964
iTRAQ abundance ratio Pa-Cathelicidin/Pa-Control of protein Q9I2Y1 (GN=pabB)
  Pa-Ca/Pa-C: 0.998
iTRAQ abundance ratio Pa-Cathelicidin/Pa-Control of protein Q9I3F3 (GN=tusA)
  Pa-Ca/Pa-C: 0.8155
iTRAQ abundance ratio Pa-Cathelicidin/Pa-Control of protein Q9I3J6 (GN=PA1517)
  Pa-Ca/Pa-C: 1.049
iTRAQ abundance ratio Pa-Cathelicidin/Pa-Control of protein Q9I3L0 (GN=gcl)
  Pa-Ca/Pa-C: 0.9901
iTRAQ abundance ratio Pa-Cathelicidin/Pa-Control of protein Q9I4B6 (GN=PA1222)
  Pa-Ca/Pa-C: 0.8647
iTRAQ abundance ratio Pa-Cathelicidin/Pa-Control of protein Q9I4H9 (GN=PA1158)
  Pa-Ca/Pa-C: 1.038
iTRAQ abundance ratio Pa-Cathelicidin/Pa-Control of protein Q9I4N6 (GN=fliS)
  Pa-Ca/Pa-C: 1.132
iTRAQ abundance ratio Pa-Cathelicidin/Pa-Control of protein Q9I4N9 (GN=PA1090)
  Pa-Ca/Pa-C: 1.038
iTRAQ abundance ratio Pa-Cathelicidin/Pa-Control of protein Q9I4R3 (GN=PA1061)
  Pa-Ca/Pa-C: 0.9798
iTRAQ abundance ratio Pa-Cathelicidin/Pa-Control of protein Q9I5M1 (GN=migA)
  Pa-Ca/Pa-C: 0.9698
iTRAQ abundance ratio Pa-Cathelicidin/Pa-Control of protein Q9I5U7 (GN=apaH)
  Pa-Ca/Pa-C: 1.014
iTRAQ abundance ratio Pa-Cathelicidin/Pa-Control of protein Q9I5V3 (GN=cca)
  Pa-Ca/Pa-C: 0.7612
iTRAQ abundance ratio Pa-Cathelicidin/Pa-Control of protein Q9I6B3 (GN=trmB)
  Pa-Ca/Pa-C: 1.011
iTRAQ abundance ratio Pa-Cathelicidin/Pa-Control of protein Q9I7A7 (GN=PA0020)
  Pa-Ca/Pa-C: 1.051
iTRAQ abundance ratio Pa-Cathelicidin/Pa-Control of protein Q9I022 (GN=PA2821)
  Pa-Ca/Pa-C: 0.7721
iTRAQ abundance ratio Pa-Cathelicidin/Pa-Control of protein Q9I164 (GN=PA2417)
  Pa-Ca/Pa-C: 1.295
iTRAQ abundance ratio Pa-Cathelicidin/Pa-Control of protein Q9I233 (GN=PA2082)
  Pa-Ca/Pa-C: 0.8885
iTRAQ abundance ratio Pa-Cathelicidin/Pa-Control of protein Q9I300 (GN=PA1737)
  Pa-Ca/Pa-C: 1.149
iTRAQ abundance ratio Pa-Cathelicidin/Pa-Control of protein Q9I342 (GN=mtnB)
  Pa-Ca/Pa-C: 1.093
iTRAQ abundance ratio Pa-Cathelicidin/Pa-Control of protein Q9I468 (GN=cobC)
  Pa-Ca/Pa-C: 0.7767
iTRAQ abundance ratio Pa-Cathelicidin/Pa-Control of protein Q9I538 (GN=PA0919)
  Pa-Ca/Pa-C: 0.9631
iTRAQ abundance ratio Pa-Cathelicidin/Pa-Control of protein Q9I655 (GN=creB)
  Pa-Ca/Pa-C: 0.9495
iTRAQ abundance ratio Pa-Cathelicidin/Pa-Control of protein Q9I656 (GN=PA0462)
  Pa-Ca/Pa-C: 1.049
iTRAQ abundance ratio Pa-Cathelicidin/Pa-Control of protein Q9I673 (GN=PA0444)
  Pa-Ca/Pa-C: 0.9127
iTRAQ abundance ratio Pa-Cathelicidin/Pa-Control of protein Q9I688 (GN=PA0429)
  Pa-Ca/Pa-C: 1.007
iTRAQ abundance ratio Pa-Cathelicidin/Pa-Control of protein Q9I700 (GN=bauA)
  Pa-Ca/Pa-C: 0.9294
iTRAQ abundance ratio Pa-Cathelicidin/Pa-Control of protein Q9X6V8 (GN=PA3998)
  Pa-Ca/Pa-C: 1.122
iTRAQ abundance ratio Pa-Cathelicidin/Pa-Control of protein Q51426 (GN=ruvB)
  Pa-Ca/Pa-C: 1.14
[1]
  expression of protein Q9HTV3 (3-octaprenyl-4-hydroxybenzoate carboxy-lyase): downregulated
  expression of protein Q9I298 (putative 3-methylglutaconyl-ConA hydratase): downregulated
Treated vs untreated, iTRAQ, levofloxacin change not categorized as differentially expressed
  expression of protein Q9I5V3 (multifunctional CCA protein): downregulated
